In US20080009418A1, “Selective Inhibitors” (Alchemia LTD., priority 2004, published 2008):

Assays:
[1] = molecular target: T1, Human melanin-concentrating hormone (MCH1) (Homo sapiens, UniProt Q99705); test: Radioligand binding, human melanin-concentrating hormone MCH1 membranes, FlashPlate, [125I]-S36057; details: compound at 10 μM; for A6 radioligand binding inhibition: human MCH1 membranes
T1 construct: purchased Perkin Elmer Biosignal
How it was run: (§1)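 Cloned human receptor membranes were coated onto FlashPlate wells and incubated with radioligand and compound (added from a 0.5 mM DMSO daughter plate) for 1 hour at room temperature in the dark. Scintillation counting gave percent inhibition, with DMSO defining total and reference ligand defining non-specific binding.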

Human Melanocortin (MC3) = molecular target: T2, Human Melanocortin (MC3) (Homo sapiens, UniProt P41968); test: Radioligand binding, human melanocortin MC3 membranes, FlashPlate, [125I]-NDP-αMSH; details: compound at 10 μM; for A3 radioligand binding inhibition: human melanocortin MC3 membranes
T2 construct: purchased Perkin Elmer Biosignal
T2 sequence (P41968 whole entry): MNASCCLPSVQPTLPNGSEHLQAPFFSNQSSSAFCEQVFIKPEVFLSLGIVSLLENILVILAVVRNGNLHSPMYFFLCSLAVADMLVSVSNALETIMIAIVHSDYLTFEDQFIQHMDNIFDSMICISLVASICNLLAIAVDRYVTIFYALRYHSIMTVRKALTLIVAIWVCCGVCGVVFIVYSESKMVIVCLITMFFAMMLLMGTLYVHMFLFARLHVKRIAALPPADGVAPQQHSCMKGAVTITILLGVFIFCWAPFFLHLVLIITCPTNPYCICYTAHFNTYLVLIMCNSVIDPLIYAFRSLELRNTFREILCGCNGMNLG
How it was run: as §1

Human melanocortin (MC5) = molecular target: T3, Human melanocortin (MC5) (Homo sapiens, UniProt P33032); test: Radioligand binding, human melanocortin MC5 membranes, FlashPlate, [125I]-NDP-αMSH; details: compound at 10 μM; for A5 radioligand binding inhibition: human melanocortin MC5 membranes
T3 construct: purchased Perkin Elmer Biosignal
T3 sequence (P33032 whole entry): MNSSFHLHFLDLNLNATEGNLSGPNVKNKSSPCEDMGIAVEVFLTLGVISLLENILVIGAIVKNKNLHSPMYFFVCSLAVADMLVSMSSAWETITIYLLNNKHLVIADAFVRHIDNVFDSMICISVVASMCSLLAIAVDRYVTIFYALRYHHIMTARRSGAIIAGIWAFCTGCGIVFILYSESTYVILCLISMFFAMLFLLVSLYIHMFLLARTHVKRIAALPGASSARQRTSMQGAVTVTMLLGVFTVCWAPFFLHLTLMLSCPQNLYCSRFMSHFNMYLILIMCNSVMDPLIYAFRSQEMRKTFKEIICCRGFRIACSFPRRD
How it was run: as §1

Human δ-opioid (DOP) = molecular target: T4, Human δ-opioid (DOP) (Homo sapiens, UniProt P41143); test: Radioligand binding, human δ-opioid (DOP) membranes, FlashPlate, [3H]-Bremazocine; details: compound at 10 μM; for A1 radioligand binding inhibition: human δ-opioid (DOP) membranes
T4 construct: purchased Perkin Elmer Biosignal
T4 sequence (P41143 whole entry): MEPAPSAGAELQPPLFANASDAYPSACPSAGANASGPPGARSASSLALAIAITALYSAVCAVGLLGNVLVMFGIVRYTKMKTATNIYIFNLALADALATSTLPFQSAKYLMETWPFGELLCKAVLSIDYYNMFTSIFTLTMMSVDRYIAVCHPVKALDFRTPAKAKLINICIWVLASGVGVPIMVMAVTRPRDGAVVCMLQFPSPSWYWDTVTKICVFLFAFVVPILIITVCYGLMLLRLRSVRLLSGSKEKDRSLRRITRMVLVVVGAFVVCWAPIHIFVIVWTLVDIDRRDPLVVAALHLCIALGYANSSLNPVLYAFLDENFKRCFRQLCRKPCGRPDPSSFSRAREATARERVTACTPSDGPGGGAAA
How it was run: as §1

Human neurokinin (NK1) = molecular target: T5, Human neurokinin (NK1) (Homo sapiens, UniProt P25103); test: Radioligand binding, human neurokinin NK1 membranes, filtration, [125I]-Substance P; details: compound at 10 μM; for A8 radioligand binding inhibition: human neurokinin NK1 membranes
T5 construct: purchased Perkin Elmer Biosignal
T5 sequence (P25103 whole entry): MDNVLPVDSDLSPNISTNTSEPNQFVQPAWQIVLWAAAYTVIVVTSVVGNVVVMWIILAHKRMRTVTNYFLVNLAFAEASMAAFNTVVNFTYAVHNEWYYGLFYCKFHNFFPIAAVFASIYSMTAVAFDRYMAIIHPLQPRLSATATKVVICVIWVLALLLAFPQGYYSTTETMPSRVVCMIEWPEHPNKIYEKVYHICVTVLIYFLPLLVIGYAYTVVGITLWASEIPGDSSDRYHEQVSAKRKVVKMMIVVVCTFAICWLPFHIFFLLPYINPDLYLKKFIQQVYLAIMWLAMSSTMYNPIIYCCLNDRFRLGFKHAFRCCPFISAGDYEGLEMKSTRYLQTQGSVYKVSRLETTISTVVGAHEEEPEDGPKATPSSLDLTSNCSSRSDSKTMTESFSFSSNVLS
How it was run: (§2)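 Percent inhibition of radioligand binding measured on recombinant human membranes: NK1 with [125I]-Substance P, KOP with [3H]-Diprenorphine. Incubation 1 h at room temperature, then harvest onto 0.3% PEI-soaked filters, cold Tris-HCl pH 7.4 washes and scintillation counting; non-specific binding from reference ligand wells.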

Human μ-opioid (MOP) = molecular target: T6, Human μ-opioid (MOP) (Homo sapiens, UniProt P35372); test: Radioligand binding, human μ-opioid (MOP) membranes, FlashPlate, [3H]-Naloxone; details: compound at 10 μM; for A7 radioligand binding inhibition: human μ-opioid (MOP) membranes
T6 construct: purchased Perkin Elmer Biosignal
T6 sequence (P35372 whole entry): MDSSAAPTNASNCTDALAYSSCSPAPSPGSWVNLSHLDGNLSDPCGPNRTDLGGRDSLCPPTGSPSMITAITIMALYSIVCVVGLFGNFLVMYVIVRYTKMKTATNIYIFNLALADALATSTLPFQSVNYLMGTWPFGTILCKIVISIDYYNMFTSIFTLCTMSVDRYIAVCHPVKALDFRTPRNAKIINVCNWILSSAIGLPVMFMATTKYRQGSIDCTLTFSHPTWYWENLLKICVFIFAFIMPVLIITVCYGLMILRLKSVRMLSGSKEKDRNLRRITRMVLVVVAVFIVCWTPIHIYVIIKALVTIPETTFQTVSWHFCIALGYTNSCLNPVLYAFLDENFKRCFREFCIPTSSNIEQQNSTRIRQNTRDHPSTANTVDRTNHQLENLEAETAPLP
How it was run: as §1

Human Melanocortin (MC4) = molecular target: T7, Human Melanocortin (MC4) (Homo sapiens, UniProt P32245); test: Radioligand binding, human melanocortin MC4 membranes, FlashPlate, [125I]-NDP-αMSH; details: compound at 10 μM; for A4 radioligand binding inhibition: human melanocortin MC4 membranes
T7 construct: purchased Perkin Elmer Biosignal
T7 sequence (P32245 whole entry): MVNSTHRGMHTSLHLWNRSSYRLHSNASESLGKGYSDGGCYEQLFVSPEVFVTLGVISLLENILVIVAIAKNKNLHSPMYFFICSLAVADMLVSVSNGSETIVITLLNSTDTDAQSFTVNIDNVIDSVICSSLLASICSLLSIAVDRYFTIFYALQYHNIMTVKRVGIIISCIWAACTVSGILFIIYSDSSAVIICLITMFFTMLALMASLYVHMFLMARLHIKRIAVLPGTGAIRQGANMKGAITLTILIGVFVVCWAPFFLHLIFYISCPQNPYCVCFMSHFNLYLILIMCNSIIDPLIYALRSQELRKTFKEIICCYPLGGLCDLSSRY
How it was run: as §1

[2] = molecular target: T8, Human neuropeptide Y (NPY-Y1) (Homo sapiens, UniProt P25929); test: Radioligand binding, human neuropeptide Y NPY-Y1 membranes, FlashPlate, [125I]-PYY; details: compound at 10 μM; for A9 radioligand binding inhibition: human NPY-Y1 membranes
T8 construct: purchased Perkin Elmer Biosignal
T8 sequence (P25929 1-384): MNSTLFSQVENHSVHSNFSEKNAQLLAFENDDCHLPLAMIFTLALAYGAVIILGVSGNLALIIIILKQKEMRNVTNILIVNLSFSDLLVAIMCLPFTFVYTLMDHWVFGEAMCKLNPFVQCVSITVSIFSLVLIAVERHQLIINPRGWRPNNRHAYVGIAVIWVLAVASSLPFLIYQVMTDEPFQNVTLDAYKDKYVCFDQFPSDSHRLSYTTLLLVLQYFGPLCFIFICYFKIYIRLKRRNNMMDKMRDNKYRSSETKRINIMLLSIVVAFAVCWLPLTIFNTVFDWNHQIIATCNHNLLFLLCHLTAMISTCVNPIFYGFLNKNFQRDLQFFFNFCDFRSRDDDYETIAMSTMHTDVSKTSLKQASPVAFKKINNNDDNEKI
How it was run: as §1

Human κ-Opioid (KOP) = molecular target: T9, Human κ-Opioid (KOP) (Homo sapiens, UniProt P41145); test: Radioligand binding, human κ-opioid (KOP) membranes, filtration, [3H]-Diprenorphine; details: compound at 10 μM; for A2 radioligand binding inhibition: human κ-opioid (KOP) membranes
T9 construct: purchased Perkin Elmer Biosignal
T9 sequence (P41145 whole entry): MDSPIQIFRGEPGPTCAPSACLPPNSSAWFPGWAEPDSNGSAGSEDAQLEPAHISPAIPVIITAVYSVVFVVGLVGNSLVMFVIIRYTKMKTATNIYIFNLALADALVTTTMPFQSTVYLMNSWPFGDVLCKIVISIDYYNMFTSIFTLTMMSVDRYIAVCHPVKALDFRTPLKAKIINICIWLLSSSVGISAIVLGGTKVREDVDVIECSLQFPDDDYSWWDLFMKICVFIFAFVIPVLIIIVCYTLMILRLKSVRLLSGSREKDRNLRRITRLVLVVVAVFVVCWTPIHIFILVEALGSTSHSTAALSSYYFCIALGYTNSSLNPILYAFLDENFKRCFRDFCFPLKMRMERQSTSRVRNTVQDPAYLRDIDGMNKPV
How it was run: as §2

Human opioid (ORL1) = molecular target: T10, Human opioid (ORL1) (Homo sapiens, UniProt P41146); test: Radioligand binding, human opioid ORL1 membranes, FlashPlate, [125I]-Nociceptin; details: compound at 10 μM; for A10 radioligand binding inhibition: human ORL1 membranes
T10 construct: purchased Perkin Elmer Biosignal
T10 sequence (P41146 whole entry): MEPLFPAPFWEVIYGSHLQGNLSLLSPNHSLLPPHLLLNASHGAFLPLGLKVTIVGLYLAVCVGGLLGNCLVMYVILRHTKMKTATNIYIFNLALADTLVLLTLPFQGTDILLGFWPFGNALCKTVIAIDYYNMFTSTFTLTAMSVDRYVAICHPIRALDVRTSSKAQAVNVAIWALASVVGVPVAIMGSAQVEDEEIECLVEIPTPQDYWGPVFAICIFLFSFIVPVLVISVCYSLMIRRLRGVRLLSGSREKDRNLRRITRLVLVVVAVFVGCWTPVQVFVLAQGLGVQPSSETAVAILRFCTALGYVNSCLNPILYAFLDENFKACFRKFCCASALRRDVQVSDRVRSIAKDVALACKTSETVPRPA
How it was run: as §1

Mouse urotensin (mUR2) = molecular target: T11, Mouse urotensin (mUR2) (Mus musculus, UniProt Q8VIH9); test: Radioligand binding, mouse urotensin mUR2 membranes, FlashPlate, [125I]-Urotensin II; details: compound at 10 μM; for A11 radioligand binding inhibition: mouse urotensin mUR2 membranes
T11 construct: purchased Perkin Elmer Biosignal
T11 sequence (Q8VIH9 1-385): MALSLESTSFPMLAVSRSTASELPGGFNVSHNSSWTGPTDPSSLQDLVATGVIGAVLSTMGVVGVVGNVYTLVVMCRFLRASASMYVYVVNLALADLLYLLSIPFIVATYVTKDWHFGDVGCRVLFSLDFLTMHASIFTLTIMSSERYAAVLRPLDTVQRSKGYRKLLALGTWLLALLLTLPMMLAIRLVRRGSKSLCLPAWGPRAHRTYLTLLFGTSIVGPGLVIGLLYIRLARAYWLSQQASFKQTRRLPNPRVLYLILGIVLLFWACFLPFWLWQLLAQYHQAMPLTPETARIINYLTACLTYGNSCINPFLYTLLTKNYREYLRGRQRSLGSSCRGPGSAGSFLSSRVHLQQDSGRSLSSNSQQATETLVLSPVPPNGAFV
How it was run: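 Cloned mouse urotensin (mUR2) receptor membranes from Perkin Elmer Biosignal were immobilized in FlashPlate microplates using a proprietary coating. Each well got 19.5 μl buffer, then 0.5 μl of DMSO, reference ligand, or compound. Adding 5 μl of [125I]-Urotensin II, diluted to 5× final concentration in binding buffer, started binding. Plates were sealed with TopSeal-A and incubated 1 hour at room temperature in the dark. Wells were counted for 30 seconds each on a TopCount after a 60-second delay, and percentage inhibition was calculated.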

T1 sequence (Q99705 whole entry): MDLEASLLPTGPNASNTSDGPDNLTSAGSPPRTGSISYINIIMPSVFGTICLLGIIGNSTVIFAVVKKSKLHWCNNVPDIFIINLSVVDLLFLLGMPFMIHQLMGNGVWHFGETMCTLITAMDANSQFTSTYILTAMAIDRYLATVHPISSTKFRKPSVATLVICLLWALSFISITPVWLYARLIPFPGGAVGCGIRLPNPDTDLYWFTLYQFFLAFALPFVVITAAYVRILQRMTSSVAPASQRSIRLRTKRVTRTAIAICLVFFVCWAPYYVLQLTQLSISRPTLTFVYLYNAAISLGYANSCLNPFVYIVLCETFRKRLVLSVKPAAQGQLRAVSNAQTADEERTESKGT

Row | SMILES | A6 radioligand binding, percentage inhibition ([1]; [125I]-S36057) | A3 radioligand binding, percentage inhibition (Human Melanocortin (MC3); [125I]-NDP-αMSH) | A5 radioligand binding, percentage inhibition (Human melanocortin (MC5); [125I]-NDP-αMSH) | A1 radioligand binding, percentage inhibition (Human δ-opioid (DOP); [3H]-Bremazocine) | A8 radioligand binding, percentage inhibition (Human neurokinin (NK1); [125I]-Substance P) | A7 radioligand binding, percentage inhibition (Human μ-opioid (MOP); [3H]-Naloxone) | A4 radioligand binding, percentage inhibition (Human Melanocortin (MC4); [125I]-NDP-αMSH) | A9 radioligand binding, percentage inhibition ([2]; [125I]-PYY) | A2 radioligand binding, percentage inhibition (Human κ-Opioid (KOP); [3H]-Diprenorphine) | A10 radioligand binding, percentage inhibition (Human opioid (ORL1); [125I]-Nociceptin) | A11 radioligand binding, percentage inhibition (Mouse urotensin (mUR2); [125I]-Urotensin II) | A6 radioligand binding inhibition [1] | A3 radioligand binding inhibition (Human Melanocortin (MC3)) | A5 radioligand binding inhibition (Human melanocortin (MC5)) | A1 radioligand binding inhibition (Human δ-opioid (DOP)) | A8 radioligand binding inhibition (Human neurokinin (NK1)) | A7 radioligand binding inhibition (Human μ-opioid (MOP)) | A4 radioligand binding inhibition (Human Melanocortin (MC4)) | A9 radioligand binding inhibition [2] | A2 radioligand binding inhibition (Human κ-Opioid (KOP)) | also measured
1 | COCC1OC(OCc2ccc3ccccc3c2)C(NC(=O)CCN)C(OCc2ccc3ccccc3c2)C1O (stereo not drawn) [compound 546] | – | – | – | – | – | – | – | – | – | – | – | – | – | – | – | – | – | – | – | – | A6: inhibition of radioligand binding, human melanin-concentrating hormone (MCH1) ([1]; [125I]-S36057): − (“−” indicates less than 50% inhibition at 10 μM); A3: inhibition of radioligand binding, human melanocortin (MC3) (Human Melanocortin (MC3); [125I]-NDP-αMSH): − (“−” indicates less than 50% inhibition at 10 μM); A5: inhibition of radioligand binding, human melanocortin (MC5) (Human melanocortin (MC5); [125I]-NDP-αMSH, 10 µM): + (“+” indicates greater than 50% inhibition at 10 μM); A1: inhibition of radioligand binding, human δ-opioid (DOP) (Human δ-opioid (DOP); [3H]-Bremazocine): − (“−” indicates less than 50% inhibition at 10 μM); A8: inhibition of radioligand binding, human neurokinin (NK1) (Human neurokinin (NK1); [125I]-Substance P, 10 µM): − (“−” indicates less than 50% inhibition at 10 μM); A7: inhibition of radioligand binding, human μ-opioid (MOP) (Human μ-opioid (MOP); [3H]-Naloxone): − (“−” indicates less than 50% inhibition at 10 μM); A4: inhibition of radioligand binding, human melanocortin (MC4) (Human Melanocortin (MC4); [125I]-NDP-αMSH): − (“−” indicates less than 50% inhibition at 10 μM); A9: inhibition of radioligand binding, human neuropeptide Y (NPY-Y1) ([2]; [125I]-PYY): − (“−” indicates less than 50% inhibition at 10 μM); A2: inhibition of radioligand binding, human κ-opioid (KOP) (Human κ-Opioid (KOP); [3H]-Diprenorphine): − (“−” indicates less than 50% inhibition at 10 μM); A10: inhibition of radioligand binding, human opioid (ORL1) (Human opioid (ORL1); [125I]-Nociceptin): − (“−” indicates less than 50% inhibition at 10 μM); A11: inhibition of radioligand binding, mouse urotensin (mUR2) (Mouse urotensin (mUR2); [125I]-Urotensin II): − (“−” indicates less than 50% inhibition at 10 μM)
2 | CO[C@H]1[C@H](O)[C@@H](COCc2cccc(O)c2)OC(OCc2ccc(Cl)cc2)[C@@H]1NC(=O)CCCNC(=N)N (stereo partly drawn) [compound 157] | + (“+” indicates greater than 50% inhibition at 10 μM) | − (“−” indicates less than 50% inhibition at 10 μM) | + (“+” indicates greater than 50% inhibition at 10 μM) | − (“−” indicates less than 50% inhibition at 10 μM) | + (“+” indicates greater than 50% inhibition at 10 μM) | − (“−” indicates less than 50% inhibition at 10 μM) | − (“−” indicates less than 50% inhibition at 10 μM) | − (“−” indicates less than 50% inhibition at 10 μM) | − (“−” indicates less than 50% inhibition at 10 μM) | − (“−” indicates less than 50% inhibition at 10 μM) | − (“−” indicates less than 50% inhibition at 10 μM) | – | – | – | – | – | – | – | – | – | –
3 | CO[C@H]1[C@H](O)[C@@H](COCc2ccc3ccccc3c2)OC(OCCNC(=N)N)[C@@H]1NC(=O)c1ccccc1 (stereo partly drawn) [compound 124] | − (“−” indicates less than 50% inhibition at 10 μM) | − (“−” indicates less than 50% inhibition at 10 μM) | + (“+” indicates greater than 50% inhibition at 10 μM) | − (“−” indicates less than 50% inhibition at 10 μM) | + (“+” indicates greater than 50% inhibition at 10 μM) | − (“−” indicates less than 50% inhibition at 10 μM) | − (“−” indicates less than 50% inhibition at 10 μM) | − (“−” indicates less than 50% inhibition at 10 μM) | − (“−” indicates less than 50% inhibition at 10 μM) | − (“−” indicates less than 50% inhibition at 10 μM) | − (“−” indicates less than 50% inhibition at 10 μM) | – | – | – | – | – | – | – | – | – | –
4 | CO[C@H]1[C@H](O)[C@@H](COCc2ccccc2)OC(OCCc2ccccc2)[C@@H]1NC(=O)CCCNC(=N)N (stereo partly drawn) [compound 118] | − (“−” indicates less than 50% inhibition at 10 μM) | − (“−” indicates less than 50% inhibition at 10 μM) | − (“−” indicates less than 50% inhibition at 10 μM) | − (“−” indicates less than 50% inhibition at 10 μM) | + (“+” indicates greater than 50% inhibition at 10 μM) | − (“−” indicates less than 50% inhibition at 10 μM) | − (“−” indicates less than 50% inhibition at 10 μM) | − (“−” indicates less than 50% inhibition at 10 μM) | − (“−” indicates less than 50% inhibition at 10 μM) | − (“−” indicates less than 50% inhibition at 10 μM) | − (“−” indicates less than 50% inhibition at 10 μM) | – | – | – | – | – | – | – | – | – | –
5 | COC[C@H]1OC(OCc2ccc(-c3ccccc3)cc2)[C@H](NC(=O)CNC(=N)N)[C@@H](OCc2ccc(-c3ccccc3)cc2)[C@@H]1O (stereo partly drawn) [compound 1] | – | – | – | – | – | – | – | – | – | – | – | + (“+” indicates greater than 50% inhibition at 10 μM) | + (“+” indicates greater than 50% inhibition at 10 μM) | + (“+” indicates greater than 50% inhibition at 10 μM) | − (“−” indicates less than 50% inhibition at 10 μM) | + (“+” indicates greater than 50% inhibition at 10 μM) | − (“−” indicates less than 50% inhibition at 10 μM) | + (“+” indicates greater than 50% inhibition at 10 μM) | − (“−” indicates less than 50% inhibition at 10 μM) | − (“−” indicates less than 50% inhibition at 10 μM) | A10 radioligand binding inhibition (Human opioid (ORL1)): − (“−” indicates less than 50% inhibition at 10 μM); A11 radioligand binding inhibition (Mouse urotensin (mUR2)): − (“−” indicates less than 50% inhibition at 10 μM)
6 | CO[C@H]1[C@H](O)[C@@H](COCc2ccc(Cl)cc2)OC(OCc2ccc3ccccc3c2)[C@@H]1NC(=O)CCNC(=N)N (stereo partly drawn) [compound 79] | – | – | – | – | – | – | – | – | – | – | – | − (“−” indicates less than 50% inhibition at 10 μM) | − (“−” indicates less than 50% inhibition at 10 μM) | + (“+” indicates greater than 50% inhibition at 10 μM) | − (“−” indicates less than 50% inhibition at 10 μM) | + (“+” indicates greater than 50% inhibition at 10 μM) | + (“+” indicates greater than 50% inhibition at 10 μM) | + (“+” indicates greater than 50% inhibition at 10 μM) | − (“−” indicates less than 50% inhibition at 10 μM) | − (“−” indicates less than 50% inhibition at 10 μM) | A10 radioligand binding inhibition (Human opioid (ORL1)): − (“−” indicates less than 50% inhibition at 10 μM); A11 radioligand binding inhibition (Mouse urotensin (mUR2)): − (“−” indicates less than 50% inhibition at 10 μM)
